# According to patent publication US9708370B2, “Azapeptides as CD36 binding compounds” (VALORISATION-RECHERCHE, LIMITED PARTNERSHIP, priority 2007, dated 2017):
# Starred links: 1 amine or outer side, 2 acyl side, 3 side chain; linkers in the order of their positions; H or OH if unused. Non-standard residues stand in square brackets, D forms with d. Residues, ends and D or L forms follow the SMILES beside them. azaTyr = O=C(N(Cc1ccc(O)cc1)N[*:1])[*:2]
# Key:
# CD36 = CD36 (Rattus norvegicus (Rat), UniProt Q07969); experiment: CD36 receptor covalent photolabelling binding assay, competition with [125I]Tyr-Bpa-Ala-hexarelin on rat cardiac membranes
# Sequence of CD36 (Q07969 whole entry): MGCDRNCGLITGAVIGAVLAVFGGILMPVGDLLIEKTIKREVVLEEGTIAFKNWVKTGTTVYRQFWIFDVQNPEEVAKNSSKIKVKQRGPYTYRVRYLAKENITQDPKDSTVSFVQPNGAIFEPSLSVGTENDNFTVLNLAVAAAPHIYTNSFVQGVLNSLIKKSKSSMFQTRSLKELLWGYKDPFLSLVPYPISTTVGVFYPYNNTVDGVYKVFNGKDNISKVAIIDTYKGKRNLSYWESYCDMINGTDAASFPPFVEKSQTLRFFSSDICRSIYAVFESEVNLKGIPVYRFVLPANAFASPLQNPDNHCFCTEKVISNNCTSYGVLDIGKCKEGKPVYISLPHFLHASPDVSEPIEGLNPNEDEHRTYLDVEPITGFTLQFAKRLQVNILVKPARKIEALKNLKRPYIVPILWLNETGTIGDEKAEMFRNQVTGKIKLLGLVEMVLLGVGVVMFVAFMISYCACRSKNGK
# [1] = tested on: laser injury induced choroidal neovascularisation; experiment: Inhibition of choroidal neovascularisation in vivo, laser injury model; design: species or system mice
# Text: The standard model of choroidal neovascularisation is the laser injury induced neovascularisation (47). In this model, which is applicable to rodents and primates, a laser beam is used to disrupt the RPE and the Bruchs membrane that separates the choroidal vasculature from the subretinal space. The following local inflammatory reaction in deep retina and choroid leads to a localized subretinal neovascularisation in a similar manner as that observed in AMD. This local neovascularisation can be quantified on flatmounts of RPE/choroid/sclera. The antiangiogenic effect of DBG178 on subretinal neovascularisation was tested by injecting intravitreally at effective concentration of 10^−7 to 10^−6 M within the eye and compared to that of intravitreal injection of saline used as a control.
# Ten-week old C56/Bl6+/+ and CD36 null mice of C57Bl/6 background were anesthetized by intramuscular injection of ketamine (50 mg/kg) and xylazine (10 mg/kg). Pupils were fully dilated with 1% tropicamide. Coverslips positioned on the mouse cornea were used as a contact glass. Laser-coagulations were performed 1 to 2 disc diameters away from the papillae using an Argon laser (532 nm) mounted on a slit lamp (400 mW, 50 ms and 50 μm). […] The RPE/choroids were radially incised, flatmounted and viewed using a fluorescence microscope (BX51; Olympus). CNV were measured on photographs using Scion image analysis software.
smiles,measurement,setting,value
"C[C@H](NC(=O)[C@@H](Cc1c[nH]c2ccccc12)NC(=O)[C@@H](N)Cc1cnc[nH]1)C(=O)NN(Cc1ccc(O)cc1)C(=O)N[C@H](Cc1ccccc1)C(=O)N[C@@H](CCCCN)C(N)=O [DBG178p, His-D-Trp-Ala-azaTyr-D-Phe-Lys-NH2] (H-H[dW]A[azaTyr][dF]K-NH2)",IC50,"CD36; Table 3, rat cardiac membranes, [125I]Tyr-Bpa-Ala-hexarelin as radioligand, read-out: IC50, binding affinity of aza peptide derivatives towards CD36",28 µM
same,binding activity/affinity at CD36 in words,CD36; compared with parent peptide GHRP-6 or hexarelin,maintaining the binding activity
same,inhibition of the neovascular response,"[1]; C57BL/6 mice, intravitreal injection 3 and 7 days after laser injury, 10^−7 and 10^−6 M within the eye",more than 50%
same,effect on the neovascular response,"[1]; eye of CD36 null mice, intravitreal injection",no effect
